For 16 compounds, activity coefficient results are on record in the NIST ThermoML archive (doi:10.1021/je9003178).

± gives the expanded uncertainty stated by the source.

A short description of this data set: activity coefficient (dimensionless); of the first substance listed, at infinite dilution; xn = mol fraction of the nth substance listed. Conditions: Liquid, Chromatography, x1 = 0.

In the case of `CCCC(C)=O` [pentan-2-one] + CCn1cc[n+](C)c1.N#CN=C=[N-], the activity coefficient reads like this: (322.65 K) 2.92 ± 0.13; (332.85 K) 2.93 ± 0.13; (343.15 K) 2.9 ± 0.13.

As for `CCC(C)CC` [3-methylpentane] + CCCCCC[N+](C)(C)C.O=S(=O)([N-]S(=O)(=O)C(F)(F)F)C(F)(F)F, the activity coefficient by setting is: (322.65 K) 8.65 ± 0.4; (343.85 K) 8.09 ± 0.37; (352.65 K) 7.88 ± 0.36.

As for `CCC(C)=O` [butanone] + CCn1cc[n+](C)c1.N#CN=C=[N-], the activity coefficient is, setting by setting: (322.65 K) 1.59 ± 0.06; (332.85 K) 1.46 ± 0.06; (343.15 K) 1.33 ± 0.05.

As for `CCCCO` [butan-1-ol] + CCCCCC[N+](C)(C)C.O=S(=O)([N-]S(=O)(=O)C(F)(F)F)C(F)(F)F, the activity coefficient is, setting by setting: (322.65 K) 2.25 ± 0.1; (343.85 K) 1.83 ± 0.079; (352.65 K) 1.74 ± 0.073.

Consider `Cc1ccc(C)cc1` [1,4-dimethylbenzene] + CCCCCC[N+](C)(C)C.O=S(=O)([N-]S(=O)(=O)C(F)(F)F)C(F)(F)F, for which the activity coefficient (322.65 K) is 1.82 ± 0.079, the activity coefficient (343.85 K) was found to be 1.82 ± 0.079 and the activity coefficient (352.65 K) is 1.86 ± 0.081.

For the compound `CCCCCCCC` [octane] + CCn1cc[n+](C)c1.N#CN=C=[N-], the activity coefficient (322.65 K) was found to be 290 ± 14, the activity coefficient (332.85 K) is 260 ± 12 and the activity coefficient (343.15 K) is 234 ± 11.

For `C#CCCCCC` [1-heptyne] + CCn1cc[n+](C)c1.N#CN=C=[N-], the activity coefficient runs as follows: (322.65 K) 14.5 ± 0.67; (332.85 K) 14.3 ± 0.66; (343.15 K) 14.1 ± 0.65.

In the case of `CO` [methanol] + CCn1cc[n+](C)c1.N#CN=C=[N-], the activity coefficient reads like this: (322.65 K) 0.44 ± 0.03; (332.85 K) 0.42 ± 0.03; (343.15 K) 0.41 ± 0.03.

Regarding `CCCCCCC` [heptane] + CCCCCC[N+](C)(C)C.O=S(=O)([N-]S(=O)(=O)C(F)(F)F)C(F)(F)F, the activity coefficient came to 13.5 ± 0.62 (322.65 K), 12.3 ± 0.57 (343.85 K) and 11.9 ± 0.55 (352.65 K).

On to `CCCCCCCCC` [nonane] + CCn1cc[n+](C)c1.N#CN=C=[N-], for which the activity coefficient reads like this: (322.65 K) 498 ± 24; (332.85 K) 446 ± 21; (343.15 K) 401 ± 19.

Turning to `c1ccccc1` [benzene] + CCn1cc[n+](C)c1.N#CN=C=[N-], the activity coefficient was determined as 2.57 ± 0.12 (322.65 K), 2.56 ± 0.12 (332.85 K) and 2.56 ± 0.12 (343.15 K).

In the case of `CC#N` [acetonitrile] + CCCCCC[N+](C)(C)C.O=S(=O)([N-]S(=O)(=O)C(F)(F)F)C(F)(F)F, the activity coefficient reads like this: (322.65 K) 0.486 ± 0.033; (343.85 K) 0.46 ± 0.033; (352.65 K) 0.465 ± 0.033.

As for `C#CCCCC` [1-hexyne] + CCCCCC[N+](C)(C)C.O=S(=O)([N-]S(=O)(=O)C(F)(F)F)C(F)(F)F, the activity coefficient runs as follows: (322.65 K) 2.62 ± 0.12; (343.85 K) 2.56 ± 0.12; (352.65 K) 2.58 ± 0.12.

With `CCCCCCCCCC` [decane] + CCCCCC[N+](C)(C)C.O=S(=O)([N-]S(=O)(=O)C(F)(F)F)C(F)(F)F, the activity coefficient (322.65 K) was 36.8 ± 1.7, the activity coefficient (343.85 K) was 31 ± 1.4 and the activity coefficient (352.65 K) worked out at 29.6 ± 1.4.

As for `CCC(C)=O` [butanone] + CCCCCC[N+](C)(C)C.O=S(=O)([N-]S(=O)(=O)C(F)(F)F)C(F)(F)F, the activity coefficient by setting is: (322.65 K) 0.422 ± 0.034; (343.85 K) 0.365 ± 0.035; (352.65 K) 0.354 ± 0.035.

As to `CCOCC` [diethyl ether] + CCCCCC[N+](C)(C)C.O=S(=O)([N-]S(=O)(=O)C(F)(F)F)C(F)(F)F, the activity coefficient by setting is: (322.65 K) 1.52 ± 0.059; (343.85 K) 1.91 ± 0.084; (352.65 K) 1.94 ± 0.086.
